Converted amounts (≈) assume the structure as drawn. Like-named read-outs stand apart in the source and are kept apart here.
Columns and labels:
[1] = mouse, in vivo; for Tumor Conc.: female, SCID
[2] = Metabolite profiling and identification; format: in vitro ADME; set-up: key: —: Not detected; settings: for Metabolite Hydrolysis (SN-38): M+1 393.3; for Metabolite Hydrolysis (SN-38) + H2O (carboxylate form): M+1 411.3; for Metabolite Hydrolysis (SDC-TRAP-0062): M+1 462.3; for Metabolite Hydrolysis (SDC-TRAP-0062) + N-dealkylation + glucuronide: M+1 527.3; for Metabolite Hydrolysis (SN-38) + glucuronidation: M+1 569.3; for Metabolite Hydrolysis (SN-38) + hydroxylation + glucuronidation: M+1 585.3; for Metabolite Hydrolysis (SDC-TRAP-0062) + glucuronidation: M+1 638.3; for Metabolite Hydrolysis (SDC-TRAP-0062) + oxidation + glucuronide: M+1 652.3; for Metabolite Hydrolysis (SDC-TRAP-0062) + di-oxidation + glucuronide: M+1 668.3; for Metabolite Hydrolysis (SDC-TRAP-0062) + H2O (ring opened) + glucuronide: M+1 670.3; for Metabolite Hydroxylation: M+1 896.3; for Metabolite Carboxylate form: M+1 898.3; for Metabolite Di-hydroxylation: M+1 912.4; for Metabolite Glucuronidation: M+1 1056.4
From the text: Metabolite Profiling and Identification: Metabolite profiling/identification for SDC-TRAP-0063 (M+1:880.3)

[3] = Chemical properties of SDC-TRAP-0063; format: physicochemical
From the text: SDC-TRAP-0063 is a light yellow solid having the following chemical properties: […]

[4] = tested on: human urinary bladder cancer cell line RT-112; experiment: Cytotoxicity assay (CellTiter-Glo, 72 h), RT-112; format: cell-based; settings: RT-112, 72 hours, read-out: Cytotoxicity (IC50, nM) RT-112
Experimental: Cytotoxicity of SDC-TRAP molecules was determined in three cancer cell lines. […] 80 μL of CellTiter-Glo was added to each well, followed by room temperature incubation in the dark for 15 minutes. Cell was determined by luminescence. IC50 was calculated using XLfit™ software.

[5] = tested on: human SCLC tumor xenografts; experiment: Antitumor activity in human SCLC tumor xenografts; format: in vivo, mice

CCc1c2c(nc3ccc(OC(=O)N4CCC(CCn5ccc6cc(-n7c(O)nnc7-c7cc(C(C)C)c(O)cc7O)ccc65)CC4)cc13)-c1cc3c(c(=O)n1C2)COC(=O)[C@]3(O)CC [SDC-TRAP-0063, 4,11-diethyl-4-hydroxy-3,14-dioxo-3,4,12,14-tetrahydro-1H-pyrano[3′,4′:6,7]indolizino[1,2-b]quinolin-9-yl 4-(2-(5-(3-(2,4-dihydroxy-5-isopropylphenyl)-5-hydroxy-4H-1,2,4-triazol-4-yl)-1H-indol-1-yl)ethyl)piperidine-1-carboxylate]
Tumor Conc. ([1]; 6 h): 1.61 nmol/g of tissue
Tumor Conc. ([1]; 24 h): 0.203 nmol/g of tissue
Tumor Conc. ([1]; 48 h): 0.0188 nmol/g of tissue
Tumor Conc. ([1]; […]): 6.43 nmol/g of tissue
Plasma Conc. [1]: BQL
tumor targeting (tissue distribution in plasma, tumor and heart) ([1]; iv, 50 mg/kg): selectively targets and accumulates in tumor cells
Metabolite Hydrolysis (SN-38) ([2]; Hepatocytes Dog): √
Metabolite Hydrolysis (SN-38) + H2O (carboxylate form) ([2]; Hepatocytes Dog): —
Metabolite Hydrolysis (SDC-TRAP-0062) ([2]; Hepatocytes Dog): —
Metabolite Hydrolysis (SDC-TRAP-0062) + N-dealkylation + glucuronide ([2]; Hepatocytes Dog): —
Metabolite Hydrolysis (SN-38) + glucuronidation ([2]; Hepatocytes Dog): —
Metabolite Hydrolysis (SN-38) + hydroxylation + glucuronidation ([2]; Hepatocytes Dog): —
Metabolite Hydrolysis (SDC-TRAP-0062) + glucuronidation ([2]; Hepatocytes Dog): —
Metabolite Hydrolysis (SDC-TRAP-0062) + oxidation + glucuronide ([2]; Hepatocytes Dog): —
Metabolite Hydrolysis (SDC-TRAP-0062) + di-oxidation + glucuronide ([2]; Hepatocytes Dog): —
Metabolite Hydrolysis (SDC-TRAP-0062) + H2O (ring opened) + glucuronide ([2]; Hepatocytes Dog): —
Metabolite Hydroxylation ([2]; Hepatocytes Dog): √
Metabolite Carboxylate form ([2]; Hepatocytes Dog): √
Metabolite Di-hydroxylation ([2]; Hepatocytes Dog): √
Metabolite Glucuronidation ([2]; Hepatocytes Dog): √
Metabolite Hydrolysis (SN-38) ([2]; Hepatocytes Human): —
Metabolite Hydrolysis (SN-38) + H2O (carboxylate form) ([2]; Hepatocytes Human): —
Metabolite Hydrolysis (SDC-TRAP-0062) ([2]; Hepatocytes Human): —
Metabolite Hydrolysis (SDC-TRAP-0062) + N-dealkylation + glucuronide ([2]; Hepatocytes Human): —
Metabolite Hydrolysis (SN-38) + glucuronidation ([2]; Hepatocytes Human): √
Metabolite Hydrolysis (SN-38) + hydroxylation + glucuronidation ([2]; Hepatocytes Human): —
Metabolite Hydrolysis (SDC-TRAP-0062) + glucuronidation ([2]; Hepatocytes Human): —
Metabolite Hydrolysis (SDC-TRAP-0062) + oxidation + glucuronide ([2]; Hepatocytes Human): —
Metabolite Hydrolysis (SDC-TRAP-0062) + di-oxidation + glucuronide ([2]; Hepatocytes Human): —
Metabolite Hydrolysis (SDC-TRAP-0062) + H2O (ring opened) + glucuronide ([2]; Hepatocytes Human): —
Metabolite Hydroxylation ([2]; Hepatocytes Human): —
Metabolite Carboxylate form ([2]; Hepatocytes Human): —
Metabolite Di-hydroxylation ([2]; Hepatocytes Human): —
Metabolite Glucuronidation ([2]; Hepatocytes Human): √
Metabolite Hydrolysis (SN-38) ([2]; Hepatocytes Monkey): √
Metabolite Hydrolysis (SDC-TRAP-0062) ([2]; Hepatocytes Monkey): —
Metabolite Hydrolysis (SDC-TRAP-0062) + N-dealkylation + glucuronide ([2]; Hepatocytes Monkey): —
Metabolite Hydrolysis (SN-38) + glucuronidation ([2]; Hepatocytes Monkey): √
Metabolite Hydrolysis (SN-38) + hydroxylation + glucuronidation ([2]; Hepatocytes Monkey): √
Metabolite Hydrolysis (SDC-TRAP-0062) + glucuronidation ([2]; Hepatocytes Monkey): —
Metabolite Hydrolysis (SDC-TRAP-0062) + oxidation + glucuronide ([2]; Hepatocytes Monkey): —
Metabolite Hydrolysis (SDC-TRAP-0062) + di-oxidation + glucuronide ([2]; Hepatocytes Monkey): —
Metabolite Hydrolysis (SDC-TRAP-0062) + H2O (ring opened) + glucuronide ([2]; Hepatocytes Monkey): —
Metabolite Hydroxylation ([2]; Hepatocytes Monkey): —
Metabolite Carboxylate form ([2]; Hepatocytes Monkey): —
Metabolite Di-hydroxylation ([2]; Hepatocytes Monkey): —
Metabolite Hydrolysis (SN-38) ([2]; Hepatocytes Mouse): —
Metabolite Hydrolysis (SN-38) + H2O (carboxylate form) ([2]; Hepatocytes Mouse): —
Metabolite Hydrolysis (SDC-TRAP-0062) ([2]; Hepatocytes Mouse): —
Metabolite Hydrolysis (SDC-TRAP-0062) + N-dealkylation + glucuronide ([2]; Hepatocytes Mouse): —
Metabolite Hydrolysis (SN-38) + glucuronidation ([2]; Hepatocytes Mouse): —
Metabolite Hydrolysis (SN-38) + hydroxylation + glucuronidation ([2]; Hepatocytes Mouse): —
Metabolite Hydrolysis (SDC-TRAP-0062) + glucuronidation ([2]; Hepatocytes Mouse): —
Metabolite Hydrolysis (SDC-TRAP-0062) + oxidation + glucuronide ([2]; Hepatocytes Mouse): —
Metabolite Hydrolysis (SDC-TRAP-0062) + di-oxidation + glucuronide ([2]; Hepatocytes Mouse): —
Metabolite Hydrolysis (SDC-TRAP-0062) + H2O (ring opened) + glucuronide ([2]; Hepatocytes Mouse): —
Metabolite Hydroxylation ([2]; Hepatocytes Mouse): —
Metabolite Carboxylate form ([2]; Hepatocytes Mouse): —
Metabolite Di-hydroxylation ([2]; Hepatocytes Mouse): —
Metabolite Glucuronidation ([2]; Hepatocytes Mouse): √
Metabolite Hydrolysis (SN-38) ([2]; Hepatocytes Rat): —
Metabolite Hydrolysis (SN-38) + H2O (carboxylate form) ([2]; Hepatocytes Rat): —
Metabolite Hydrolysis (SDC-TRAP-0062) ([2]; Hepatocytes Rat): —
Metabolite Hydrolysis (SDC-TRAP-0062) + N-dealkylation + glucuronide ([2]; Hepatocytes Rat): —
Metabolite Hydrolysis (SN-38) + glucuronidation ([2]; Hepatocytes Rat): √
Metabolite Hydrolysis (SN-38) + hydroxylation + glucuronidation ([2]; Hepatocytes Rat): —
Metabolite Hydrolysis (SDC-TRAP-0062) + glucuronidation ([2]; Hepatocytes Rat): —
Metabolite Hydrolysis (SDC-TRAP-0062) + oxidation + glucuronide ([2]; Hepatocytes Rat): —
Metabolite Hydrolysis (SDC-TRAP-0062) + di-oxidation + glucuronide ([2]; Hepatocytes Rat): —
Metabolite Hydrolysis (SDC-TRAP-0062) + H2O (ring opened) + glucuronide ([2]; Hepatocytes Rat): —
Metabolite Hydroxylation ([2]; Hepatocytes Rat): —
Metabolite Carboxylate form ([2]; Hepatocytes Rat): —
Metabolite Di-hydroxylation ([2]; Hepatocytes Rat): —
Metabolite Hydrolysis (SN-38) ([2]; Mouse in vivo Plasma 6 h): √
Metabolite Hydrolysis (SN-38) + H2O (carboxylate form) ([2]; Mouse in vivo Plasma 6 h): √
Metabolite Hydrolysis (SDC-TRAP-0062) ([2]; Mouse in vivo Plasma 6 h): √
Metabolite Hydrolysis (SDC-TRAP-0062) + N-dealkylation + glucuronide ([2]; Mouse in vivo Plasma 6 h): √
Metabolite Hydrolysis (SN-38) + glucuronidation ([2]; Mouse in vivo Plasma 6 h): √
Metabolite Hydrolysis (SN-38) + hydroxylation + glucuronidation ([2]; Mouse in vivo Plasma 6 h): —
Metabolite Hydrolysis (SDC-TRAP-0062) + glucuronidation ([2]; Mouse in vivo Plasma 6 h): √
Metabolite Hydrolysis (SDC-TRAP-0062) + oxidation + glucuronide ([2]; Mouse in vivo Plasma 6 h): √
Metabolite Hydrolysis (SDC-TRAP-0062) + di-oxidation + glucuronide ([2]; Mouse in vivo Plasma 6 h): √
Metabolite Hydrolysis (SDC-TRAP-0062) + H2O (ring opened) + glucuronide ([2]; Mouse in vivo Plasma 6 h): √
Metabolite Hydroxylation ([2]; Mouse in vivo Plasma 6 h): —
Metabolite Carboxylate form ([2]; Mouse in vivo Plasma 6 h): √
Metabolite Di-hydroxylation ([2]; Mouse in vivo Plasma 6 h): —
Metabolite Glucuronidation ([2]; Mouse in vivo Plasma 6 h): √
Metabolite Hydrolysis (SN-38) ([2]; Mouse in vivo Tumor 24 h): √
Metabolite Hydrolysis (SN-38) + H2O (carboxylate form) ([2]; Mouse in vivo Tumor 24 h): √
Metabolite Hydrolysis (SDC-TRAP-0062) ([2]; Mouse in vivo Tumor 24 h): √
Metabolite Hydrolysis (SDC-TRAP-0062) + N-dealkylation + glucuronide ([2]; Mouse in vivo Tumor 24 h): —
Metabolite Hydrolysis (SN-38) + glucuronidation ([2]; Mouse in vivo Tumor 24 h): √
Metabolite Hydrolysis (SN-38) + hydroxylation + glucuronidation ([2]; Mouse in vivo Tumor 24 h): —
Metabolite Hydrolysis (SDC-TRAP-0062) + glucuronidation ([2]; Mouse in vivo Tumor 24 h): √
Metabolite Hydrolysis (SDC-TRAP-0062) + oxidation + glucuronide ([2]; Mouse in vivo Tumor 24 h): —
Metabolite Hydrolysis (SDC-TRAP-0062) + di-oxidation + glucuronide ([2]; Mouse in vivo Tumor 24 h): —
Metabolite Hydrolysis (SDC-TRAP-0062) + H2O (ring opened) + glucuronide ([2]; Mouse in vivo Tumor 24 h): —
Metabolite Hydroxylation ([2]; Mouse in vivo Tumor 24 h): —
Metabolite Carboxylate form ([2]; Mouse in vivo Tumor 24 h): √
Metabolite Di-hydroxylation ([2]; Mouse in vivo Tumor 24 h): —
Metabolite Glucuronidation ([2]; Mouse in vivo Tumor 24 h): √
logP [3]: 4.69
pKa [3]: 9.27
Stability remark beside solubility ([3]; In water (pH = 11.8*)): not stable
solubility ([3]; aqueous buffer, In water (pH = 9.7)): 33 µg/mL (≈ 37.5 µM)
solubility ([3]; aqueous buffer, In water (pH = 11.8*)): 926 µg/mL (≈ 1050 µM)
solubility ([3]; ethanol, organic solvent or mixture, In EtOH): 1560 µg/mL (≈ 1770 µM)
solubility ([3]; organic solvent or mixture, In PEG300): 5640 µg/mL (≈ 6410 µM)
IC50 [4]: 83 nM
tolerability ([5]; SCLC xenografts): very well tolerated
antitumor activity in SCLC xenografts (FIG. 19) ([5]; once weekly for three weeks, then drug-free period, SDC-TRAP-0063 100 and 150 mg/kg): remarkable and durable antitumor activity compared with irinotecan or ganetespib plus irinotecan

Source: patent US10828315B2 (Madrigal Pharmaceuticals, Inc., priority 2013, dated 2020)
